Data: patent publication US20040242697A1, “Methods of reducing pests by use of iodoacetic acid, bromoacetic acid, 2-iodoacetamide, or 2-bromoacetamide” (priority 2003, published 2004)

Assays:
[1] = system: Fusarium oxysporum f. sp. lycopersici (isolate FP-7) spores; assay: Fusarium tetrazolium (MTT) spore viability assay; assay type: cell-based; conditions: for concentration giving elimination of viable cells: 24 hr exposure, absorbance at 570 nm; for cell viability result compared with Benlate control: tetrazolium cell viability test
Method: (§1) The suspension was then standardized using a Beckman spectrophotometer (430 nm), which has been calibrated using a CDB blank. […] Suspensions were incubated for 24 hr at 28° C. A 10% stock solution of MTT was then added to each aliquot. The suspensions were allowed to incubate for 4 hr, then pelleted, drained, rinsed, and treated with 95% ethanol. The color change, which correlates with spore viability, was assessed using the Beckman spectrophotometer (570 nm), calibrated with 95% ethanol. Benlate (benomyl) was used as an industry standard control. Each treatment was replicated six times and the assay for each compound was repeated. […] A mycelial plug of (cork bore size #3) Fusarium oxysporum f. sp. lycopersici (isolate FP-7) from a 7-day old culture was placed at the center of the plate and the radial growth of the fungus was measured for 7-10 days. Each treatment was replicated six times and the assay for each compound was repeated. Regression analysis was performed using Sigma Plot 2000.
(§2) The tetrazolium assay is based on a color change produced with a vital stain on living tissue, i.e. the lower the absorbance, the fewer viable cells.

[2] = system: Fusarium oxysporum f. sp. lycopersici (isolate FP-7); assay: Fusarium petri plate (PDA) assay, radial growth; assay type: cell-based; conditions: for fungal growth elimination compared with Benlate control: PDA-based assay
Method: as §1, §2

[3] = system: nutsedge (Cyperus esculentus and C. rotundus); assay: Field study, weed biomass emerging through the plastic mulch; assay type: in vivo; conditions: pre-plant, tomato field, Florida
[4] = system: native weed population (weeds in the plant hole); assay: Field study, weed biomass emerging in the planting hole; assay type: in vivo; conditions: pre-plant, tomato field, Florida
[5] = system: root knot nematode Meloidogyne sp.; assay: Field study, root knot nematode root galling on tomato; assay type: in vivo; conditions: 600 and 800 lb per acre, assessed at harvest; population unevenly distributed
[6] = system: purple nutsedge (Cyperus rotundus) tubers; assay: Nutsedge greenhouse assay, soil drench on tubers in pots; assay type: in vivo; conditions: 100 ml soil drench, tarped 7 days, shoots counted 60 days
Method: Herbicide Screen: Each candidate compound was tested on seeds of smooth pigweed (Amaranthus hybridus) and barnyard grass (Echinocloa crus-galli), and on tubers of purple nutsedge (Cyperus rotundus) by exposing seeds or tubers to a specific concentration of the test compound. Seeds were surface sterilized and 20 seeds placed on sterile filter paper (Whatman #5) in a 10-cm petri plate for each of six replicates for each weed species tested. Twenty ml of compound of concentrations ranging from 0 ppm (sterile water control) to 2000 ppm was added to the petri dishes. Plates were stored at 30° C. in an dark incubator. Seed germination was monitored at 24 hr intervals for 30 days. Petri plate bioassays were repeated twice for each compound. Field collected purple nutsedge tubers were placed in 500 g of field soil with soil moisture adjusted to 5%. Five nutsedge tubers were planted in each 10-cm pot at a depth of 2.5 cm. Six replicate pots of each concentration, ranging from 0 ppm (water control) to 2000 ppm, will be treated using 100 ml as a soil drench. Pots were tarped with co-extruded black-on-white polyethylene mulch for 7 days. After tarps were removed, the number of emerged nutsedge shoots was recorded on a weekly basis for 60 days.

CCCCNC(=O)n1c(NC(=O)OC)nc2ccccc21 [Benlate, benomyl, reference compound]
concentration giving elimination of viable cells [1]: 100 ppm

NC(=O)CI [iodoacetamide, 2-iodoacetamide]
fungal growth elimination compared with Benlate control [2]: significantly better than the Benlate control
concentration giving elimination of viable cells [1]: 100 ppm
cell viability result compared with Benlate control [1]: comparable to a Benlate control

O=C(O)CBr [bromoacetic acid]
fungal growth elimination compared with Benlate control [2]: significantly better than the Benlate control
control of nutsedge emerging through the plastic versus methyl bromide ([3]; 600 lb per acre): as effective as methyl bromide
control of nutsedge emerging through the plastic (fresh and dry weight) versus methyl bromide ([3]; 800 lb per acre): as effective as methyl bromide
control of weeds in the plant hole versus methyl bromide ([4]; 600 lb per acre): not as effective
control of weeds emerging in the plant hole (fresh and dry weight) versus methyl bromide ([4]; 800 lb per acre): as effective as methyl bromide
root knot nematode control (root galling, scale 0-10) versus untreated check [5]: not statistically significantly different from the untreated check

O=C(O)CI [iodoacetic acid]
fungal growth elimination compared with Benlate control [2]: comparable to the Benalte control
concentration at which fungal growth was eliminated ([2]; compound in potato dextrose agar, radial growth measured 7-10 days): ≥ 500 ppm

NC(=O)CBr [bromoacetamide, 2-bromoacetamide]
fungal growth elimination compared with Benlate control [2]: significantly better than the Benlate control
concentration giving elimination of viable cells [1]: 100 ppm
cell viability result compared with Benlate control [1]: comparable to a Benlate control
concentration eliminating germination of nutsedge [6]: ≥ 1000 ppm
